Measured values taken from patent publication US9481659B2, “Selective heterocyclic sphingosine 1 phosphate receptor modulators” (Celgene International II SÀRL, priority 2011, dated 2016).
Structures can show the parent of a compound that is named as a salt.

Target: S1P1/EDG1 (Homo sapiens, UniProt P21453)
Assay: S1P1 CRE-bla CHOK1 reporter assay, inhibition of Forskolin induced cAMP
Assay type: cell-based
Details: agonist activity range; S1P1 CRE-bla CHOK1 cells, 2 μM Forskolin; read-out: S1P1 ACTIVITY
Protocol: Generation of S1P1-Mediated Inhibition of cAMP Reporter Assay
A mammalian expression plasmid containing S1P1/EDG1 cloned into pcDNA3.1 was purchased from Missouri S&T cDNA Resource Centre. […] S1P1/pcDNA3.1 was transfected into the CRE-bla CHO K1 (Invitrogen) cell line, and stable single cell clones were selected using standard techniques.
S1P1 CRE-Bla CHOK1 Reporter Assay—Characterization of S1P1 Agonists
Cells were seeded into 384-well black wall/clear bottom plates at 10^4 cells/well/19.5 μl assay media (DMEM-phenol free, 0.5% charcoal/dextran stripped serum, 2 mM glutamine, 0.1 mM NEAA, 1 mM Na-Pyruvate, 25 mM Hepes) and incubated for 18 hrs at 37° C. in 5% CO2. Dose response curves (10-point) were generated in 10 mM Hepes, 0.1% Pluronic F127, in the presence of Forskolin. Cells were treated with 0.5 μl compound in the presence of 2 μM Forskolin for 4 hrs at 37° C. The FRET-based β-lactamase fluorescent substrate (LiveBLAzer™-FRET B/G Loading Kit CC4-AM; Invitrogen) was prepared according to manufacturer's directions, and incubated with cells for 2 hrs at room temperature.

Sequence of S1P1/EDG1 (P21453 whole entry): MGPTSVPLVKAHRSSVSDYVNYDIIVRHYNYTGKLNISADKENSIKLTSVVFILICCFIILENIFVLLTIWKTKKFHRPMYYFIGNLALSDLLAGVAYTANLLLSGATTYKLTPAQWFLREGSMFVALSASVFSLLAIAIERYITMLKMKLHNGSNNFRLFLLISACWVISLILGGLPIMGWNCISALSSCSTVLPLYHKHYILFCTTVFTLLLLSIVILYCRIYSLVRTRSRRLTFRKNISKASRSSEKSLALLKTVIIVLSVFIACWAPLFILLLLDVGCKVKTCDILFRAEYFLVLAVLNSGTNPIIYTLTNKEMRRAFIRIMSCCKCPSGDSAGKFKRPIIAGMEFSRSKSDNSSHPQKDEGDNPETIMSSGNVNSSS

Row | Structure (SMILES) | EC50
1 | CC(=O)N[C@H]1CCCc2c(-c3nnc(-c4ccc(OC(C)C)c(C#N)c4)s3)cccc21 [Compound 232, (S)—N-(5-(5-(3-cyano-4-isopropoxyphenyl)-1,3,4-thiadiazol-2-yl)-1,2,3,4-tetrahydronaphthalen-1-yl)acetamide] | 0.5 to 5 nM
2 | CC(C)Oc1ccc(-c2ncc(-c3cccc4c3CC[C@H]4O)s2)cc1C#N [Compound 69, (R)-5-(5-(1-hydroxy-2,3-dihydro-1H-inden-4-yl)thiazol-2-yl)-2-isopropoxy benzonitrile] | 0.05 to 0.5 nM
3 | CC(C)Oc1ccc(-c2nnc(-c3cccc4c3CC[C@H]4NC(=O)CN(C)C)s2)cc1C#N [Compound 49] | 0.5 to 5 nM
4 | CNCCS(=O)(=O)N[C@@H]1CCc2c(-c3cnc(-c4ccc(OC(C)C)c(C#N)c4)s3)cccc21 [Compound 126] | 0.5 to 5 nM
5 | CNCC(=O)N[C@@H]1CCCc2c(-c3nnc(-c4ccc(OC(C)C)c(C#N)c4)s3)cccc21 [Compound 251] | 0.5 to 5 nM
6 | CC(C)Oc1ccc(-c2nnc(-c3cccc4c3CCC[C@H]4NCc3cnco3)s2)cc1C#N [Compound 273] | 0.5 to 5 nM
7 | CC(C)Oc1ccc(-c2nnc(-c3cccc4c3CCC[C@H]4NC(=O)[C@H](N)CO)s2)cc1C#N [Compound 247] | 0.5 to 5 nM
8 | CC(C)Oc1ccc(-c2ncc(-c3cccc4c3CC[C@H]4NS(=O)(=O)CCN3CC[C@H](N)C3)s2)cc1C#N [Compound 136] | > 5 nM
9 | CC(C)Oc1ccc(-c2ncc(-c3cccc4c3CC[C@H]4NC(=O)N3CC[C@H](N(C)C)C3)s2)cc1C#N [Compound 182] | 0.5 to 5 nM
10 | CC(C)Oc1ccc(-c2ncc(-c3cccc4c3CC[C@H]4NC(=O)CN)s2)cc1C#N [Compound 77] | 0.05 to 0.5 nM
11 | CC(C)Oc1ccc(-c2nnc(-c3cccc4c3CCC[C@@H]4NC(=O)CCO)s2)cc1C#N [Compound 255] | 0.05 to 0.5 nM
12 | CC(C)Oc1ccc(-c2ncc(-c3cccc4c3CC[C@H]4NS(=O)(=O)CCN(C)C)s2)cc1C#N [Compound 123] | 0.5 to 5 nM
13 | COCCN[C@@H]1CCc2c(-c3cnc(-c4ccc(OC(C)C)c(C#N)c4)s3)cccc21 [Compound 93] | 0.5 to 5 nM
14 | COC(=O)CS(=O)(=O)N[C@H]1CCc2c(-c3nsc(-c4ccc(OC(C)C)c(C#N)c4)n3)cccc21 [Compound 313, (S)-methyl 2-(N-(4-(5-(3-cyano-4-isopropoxyphenyl)-1,2,4-thiadiazol-3-yl)-2,3-dihydro-1H-inden-1-yl)sulfamoyl)acetate] | 0.05 to 0.5 nM
15 | CC(C)Oc1ccc(-c2nnc(-c3cccc4c3CCC[C@H]4NCCN(C)C)s2)cc1C#N [Compound 274, (R)-5-(5-(5-((2-(dimethylamino)ethyl)amino)-5,6,7,8-tetrahydronaphthalen-1-yl)-1,3,4-thiadiazol-2-yl)-2-isopropoxybenzonitrile] | 0.5 to 5 nM
16 | CC(C)Oc1ccc(-c2ncc(-c3cccc4c3CC[C@H]4NCC(=O)N3CC[C@H](O)C3)s2)cc1C#N [Compound 102, 5-(5-((R)-1-((2-((S)-3-hydroxypyrrolidin-1-yl)-2-oxoethyl)amino)-2,3-dihydro-1H-inden-4-yl)thiazol-2-yl)-2-isopropoxybenzonitrile hydrochloride] | 0.05 to 0.5 nM
17 | CC(C)Oc1ccc(-c2ncc(-c3cccc4c3CC[C@H]4NC(=O)N3CCC[C@H](O)C3)s2)cc1C#N [Compound 197] | 0.5 to 5 nM
18 | CC(C)Oc1ccc(-c2nnc(-c3cccc4c3CCC4NS(=O)(=O)CCN3CC[C@@H](O)C3)s2)cc1C#N (stereo in doubt) [Compound 38, N—((R)-4-(5-(3-cyano-4-isopropoxyphenyl)-1,3,4-thiadiazol-2-yl)-2,3-dihydro-1H-inden-1-yl)-2-((R)-3-hydroxypyrrolidin-1-yl)ethanesulfonamide] | 0.5 to 5 nM
19 | CC(C)Oc1ccc(-c2nnc(-c3cccc4c3CCC[C@H]4NC(=O)[C@@H](N)CO)s2)cc1C#N [Compound 248] | 0.05 to 0.5 nM
20 | CC(C)Oc1ccc(-c2nnc(-c3cccc4c3CCC[C@H]4NCC(=O)N3CCCC3)s2)cc1C#N [Compound 303, (R)-2-isopropoxy-5-(5-(5-((2-oxo-2-(pyrrolidin-1-yl)ethyl)amino)-5,6,7,8-tetrahydronaphthalen-1-yl)-1,3,4-thiadiazol-2-yl)benzonitrile] | 0.05 to 0.5 nM
21 | CC(C)Oc1ccc(-c2ncc(-c3cccc4c3CC[C@H]4NS(=O)(=O)CCC(=O)O)s2)cc1C#N [Compound 160] | < 0.05 nM
22 | CC(C)Oc1ccc(-c2ncc(-c3cccc4c3CC[C@H]4NC(=O)N3CC[C@@H](N)C3)s2)cc1C#N [Compound 178] | 0.05 to 0.5 nM
23 | CC(C)Oc1ccc(-c2nnc(-c3cccc4c3CCC[C@H]4NCc3cccnc3)s2)cc1C#N [Compound 263, (R)-2-isopropoxy-5-(5-(5-((pyridin-3-ylmethyl)amino)-5,6,7,8-tetrahydronaphthalen-1-yl)-1,3,4-thiadiazol-2-yl)benzonitrile] | 0.5 to 5 nM

Row | Structure (SMILES) | EC50
24 | CC(C)Oc1ccc(-c2nnc(-c3cccc4c3CCC[C@H]4NS(=O)(=O)CC(=O)N(C)C)s2)cc1C#N [Compound 292, (R)-2-(N-(5-(5-(3-cyano-4-isopropoxyphenyl)-1,3,4-thiadiazol-2-yl)-1,2,3,4-tetrahydronaphthalen-1-yl)sulfamoyl)-N,N-dimethylacetamide] | 0.05 to 0.5 nM
25 | CC(C)Oc1ccc(-c2ncc(-c3cccc4c3CC[C@H]4NC(=O)Cc3ccccc3)s2)cc1C#N [Compound 83] | > 5 nM
26 | CC(C)Oc1ccc(-c2nnc(-c3cccc4c3CCC[C@@H]4NC(=O)CCNS(C)(=O)=O)s2)cc1C#N [Compound 254] | 0.5 to 5 nM
27 | CC(C)Oc1ccc(-c2ncc(-c3cccc4c3CC[C@H]4NC(=O)N(C)C)s2)cc1C#N [Compound 168] | 0.05 to 0.5 nM
28 | CC(C)Oc1ccc(-c2ncc(-c3cccc4c3CC[C@@H]4NS(=O)(=O)CCN3CC[C@@H](O)C3)s2)cc1C#N [Compound 131] | 0.5 to 5 nM
29 | CC(C)Oc1ccc(-c2nnc(-c3cccc4c3CCC[C@@H]4NS(C)(=O)=O)s2)cc1C#N [Compound 279, (S)—N-(5-(5-(3 cyano-4-isopropoxyphenyl)-1,3,4-thiadiazol-2-yl)-1,2,3,4-tetrahydronaphthalen-1-yl)methanesulfonamide] | 0.05 to 0.5 nM
30 | CC(C)Oc1ccc(-c2ncc(-c3cccc4c3CC[C@H]4NS(=O)(=O)CCN3CC[C@@H](O)C3)s2)cc1C#N [Compound 133] | 0.5 to 5 nM
31 | CNC(=O)CS(=O)(=O)N[C@H]1CCCc2c(-c3nnc(-c4ccc(OC(C)C)c(C#N)c4)s3)cccc21 [Compound 295] | 0.05 to 0.5 nM
32 | CC(C)Oc1ccc(-c2nnc(-c3cccc4c3CCC[C@H]4NC(=O)CN(C)C)s2)cc1C#N [Compound 236] | 0.5 to 5 nM
33 | CC(C)Oc1ccc(-c2nnc(-c3cccc4c3CCC[C@@H]4N)s2)cc1C#N [Compound 229, (S)-5-(5-(5-amino-5,6,7,8-tetrahydronaphthalen-1-yl)-1,3,4-thiadiazol-2-yl)-2-isopropoxybenzonitrile hydrochloride] | 0.5 to 5 nM
34 | CC(C)Oc1ccc(-c2nnc(-c3cccc4c3CCC[C@H]4NCCO)s2)cc1C#N [Compound 299, (R)-5-(5-(5-((2-hydroxyethyl)amino)-5,6,7,8-tetrahydronaphthalen-1-yl)-1,3,4-thiadiazol-2-yl)-2-isopropoxybenzonitrile] | 0.5 to 5 nM
35 | CC(C)Oc1ccc(-c2ncc(-c3cccc4c3CC[C@H]4NC(=O)N3CCC(CC(=O)O)CC3)s2)cc1C#N [Compound 200] | 0.05 to 0.5 nM
36 | CC(C)Oc1ccc(-c2nnc(-c3cccc4c3CCC[C@@H]4NC(=O)c3ccncc3)s2)cc1C#N [Compound 241] | 0.5 to 5 nM
37 | COC(=O)CC1CCN(C(=O)N[C@@H]2CCc3c(-c4cnc(-c5ccc(OC(C)C)c(C#N)c5)s4)cccc32)CC1 [Compound 204] | 0.5 to 5 nM
38 | CC(C)Oc1ccc(-c2ncc(-c3cccc4c3CC[C@H]4NC(=O)N3CC[C@H](O)C3)s2)cc1C#N [Compound 177] | 0.05 to 0.5 nM
39 | CC(C)Oc1ccc(-c2nnc(-c3cccc4c3CCC[C@@H]4NCCS(C)(=O)=O)s2)cc1C#N [Compound 297, (S)-2-isopropoxy-5-(5-(5-((2-(methylsulfonyl)ethyl)amino)-5,6,7,8-tetrahydronaphthalen-1-yl)-1,3,4-thiadiazol-2-yl)benzonitrile] | 0.5 to 5 nM
40 | CC(C)Oc1ccc(-c2nnc(-c3cccc4c3CCC[C@@H]4NS(=O)(=O)CCO)s2)cc1C#N [Compound 290, (S)—N-(5-(5-(3-cyano-4-isopropoxyphenyl)-1,3,4-thiadiazol-2-yl)-1,2,3,4-tetrahydronaphthalen-1-yl)-2-hydroxyethanesulfonamide] | 0.05 to 0.5 nM
41 | CC(C)Oc1ccc(-c2ncc(-c3cccc4c3CC[C@H]4NS(=O)(=O)C3CC3)s2)cc1C#N [Compound 117] | 0.05 to 0.5 nM
42 | CC(=O)N[C@@H]1CCc2c(-c3cnc(-c4ccc(OC(C)C)c(C#N)c4)s3)cccc21 [Compound 87] | 0.05 to 0.5 nM
43 | CC(C)Oc1ccc(-c2nnc(-c3cccc4c3CCC[C@H]4NC(=O)c3ccccn3)s2)cc1C#N [Compound 235] | 0.5 to 5 nM
44 | CC(C)Oc1ccc(-c2nnc(-c3cccc4c3CCC[C@H]4NCc3ncc[nH]3)s2)cc1C#N [Compound 265] | 0.5 to 5 nM
45 | CC(C)Oc1ccc(-c2nnc(-c3cccc4c3CCC[C@H]4NS(=O)(=O)CCO)s2)cc1C#N [Compound 289, (R)—N-(5-(5-(3-cyano-4-isopropoxyphenyl)-1,3,4-thiadiazol-2-yl)-1,2,3,4-tetrahydronaphthalen-1-yl)-2-hydroxyethanesulfonamide] | 0.05 to 0.5 nM
46 | CC(C)Oc1ccc(-c2nnc(-c3cccc4c3CCC[C@@H]4NCc3cnc[nH]3)s2)cc1C#N [Compound 267] | 0.5 to 5 nM
